Reference: patent US20230123588A1, “METHODS OF SLOWING BRAIN VOLUME LOSS” (ACTELION PHARMACEUTICALS LTD, priority 2020, published 2023)

Key:
[1] = test system: adult subjects with brain volume loss (relapsing multiple sclerosis); settings: human, in vivo
Text: Based on the individual case review, most ALT/AST increases ≥3×ULN occurred as a single transient asymptomatic episode, resolving with continued treatment or after protocol mandated treatment discontinuation. All but one case of bilirubin increase ≥2×ULN occurred in subjects with pre-treatment bilirubin increases. One case of potential Hy's law occurred in a subject with pre-existing transaminase elevation (ALT>5×ULN), and the event fully resolved within 2 weeks after treatment discontinuation.

[2] = test system: adult subjects with brain volume loss (relapsing multiple sclerosis); test: Treatment-emergent adverse events, AESIs and deaths (Safety Set); assay type: in vivo, human; settings: Ponesimod 20 mg N = 565, Teriflunomide 14 mg N = 566
Method: The most common AESIs were reported for category hepatobiliary disorders/liver enzyme abnormality (25.7% vs 14.5% in ponesimod 20 mg compared to teriflunomide 14 mg, respectively), followed by category hypertension (10.1% vs 9.0%), and pulmonary events (8.0% vs 2.7%).

[3] = test system: adult subjects with brain volume loss (relapsing multiple sclerosis); test: Percent change in brain volume from baseline (MRI, SIENA) in randomized double-blind study of ponesimod vs teriflunomide; assay type: in vivo, human; settings: Week 60
[4] = test system: adult subjects with brain volume loss (relapsing multiple sclerosis); test: 12-lead ECG heart rate and first-dose monitoring on Day 1; assay type: in vivo, human; settings: for mean heart rate reduction compared to pre-dose: Day 1, 2-hours post dose, 12-lead ECG, ponesimod 20 mg arm, teriflunomide 14 mg; for subjects with asymptomatic post-dose HR≤40 bpm: Day 1, all had pre-treatment HR<55 bpm
Method: The incidence of treatment-emergent heart rate and rhythm (including hypotension) AESIs on Day 1 was higher in the ponesimod 20 mg arm (2.1%) than in the teriflunomide 14 mg arm (0.4%). However, the overall incidence of first dose AESI on Day 1 was low (2.1%) in ponesimod. None of these events were serious nor led to permanent discontinuation of study treatment. Discharge criteria at 4 hours post-dose were met for ca. 99% of subjects. […] ECG HR effect: nadir at 2 hours post-dose (siponimod—3-4 hours, fingolimod—around by 6 hours). Low incidence of low HR outliers (post-dose HR≤40 bpm), all 3 of them with a pre-treatment HR of <55 bpm, which is a known risk factor for post-dose bradycardia with S1P receptor modulators.
The mean heart rate reduction compared to pre-dose reached a maximum for ponesimod 20 mg at 2-hours post dose, −8.7 bpm compared to −1.7 bpm for teriflunomide 14 mg (FIG. 2).

[5] = test system: adult subjects with brain volume loss (relapsing multiple sclerosis); test: Percent change in brain volume from baseline (MRI, SIENA) in randomized double-blind study of ponesimod vs teriflunomide; assay type: in vivo, human; settings: for LS Mean difference in percent change in brain volume (Ponesimod 20 mg − Teriflunomide 14 mg) / LS Mean percent change in brain volume from baseline: Week 108; for brain volume loss (BVL) up to EOS: teriflunomide 14 mg
Method: Main analysis set for efficacy: The Full Analysis Set (FAS) included all randomized subjects. Subjects were evaluated according to the treatment they were randomized to.
Efficacy variable/timepoint: The endpoint was brain volume loss up to the end of study (EOS). All available data up to EOS, regardless of treatment discontinuation was included (ITT approach).
Using a mixed model with linear time effect (adjusted for stratification factors, presence/absence of GD+T1 lesions at baseline, and normalized brain volume at baseline), the LS mean percent change from baseline to Week 108 in brain volume was −0.91% in the ponesimod 20 mg group (n=436) and −1.25% in the teriflunomide 14 mg group (n=434). The LS mean difference (ponesimod 20 mg—teriflunomide 14 mg) was 0.34% (95% CLs: 0.17, 0.50; p<0.0001).
Results of the analysis using a repeated measurements ANOVA model (MMRM) were consistent with that described above with respect to the mixed model with linear time effect.

[6] = test system: adult subjects with brain volume loss (relapsing multiple sclerosis); test: Reasons for premature treatment discontinuation in the study; assay type: in vivo; settings: for subjects discontinued due to AEs or tolerability related reasons / subjects discontinued due to efficacy related reasons: ponesimod 20 mg, teriflunomide 14 mg
Method: A total of 1468 subjects were screened. Of those, 1133 subjects were randomized (567 to ponesimod 20 mg and 566 to teriflunomide 14 mg) across 162 sites in 28 countries, and 1131 subjects received at least one dose of study drug. The disposition of subjects is summarized in Table 1 and a summary of reasons (primary reason) for treatment discontinuation are shown in Table 2. Overall treatment and study discontinuation were balanced across both treatment arms. A total of 6.5% and 2.5% of the subjects discontinued due to AEs or tolerability related reasons in ponesimod 20 mg and teriflunomide 14 mg, respectively, while 1.9% and 4.3% discontinued due to efficacy related reasons. There were 2 deaths reported during the study—both on teriflunomide 14 mg.

[7] = other S1P receptor modulators, given for comparison; cited from earlier work
[8] = mixed model with linear time effect
[9] = mixed model with linear time effect, Ponesimod 20 mg (436 subjects), Teriflunomide 14 mg (434 subjects)
[10] = repeated measurements ANOVA model (MMRM)
[11] = repeated measurements ANOVA model (MMRM), Ponesimod 20 mg (418 subjects), Teriflunomide 14 mg (414 subjects)
[12] = ponesimod 20 mg, up to end of study
[13] = Safety Set, Ponesimod 20 mg N = 565, Teriflunomide 14 mg N = 566

Row | Structure (SMILES) | proportion of subjects who experienced ALT increase >8×ULN [1] [%] | proportion of subjects who experienced ALT increase ≥3×ULN [1] [%] | Subject with at least one Fatal AE [2] | LS Mean percent change in brain volume from baseline [3, 9] [%] | LS Mean percent change in brain volume from baseline [3, 11] [%] | mean heart rate reduction compared to pre-dose [4] [bpm] | subjects with asymptomatic post-dose HR≤40 bpm [4] | LS Mean percent change in brain volume from baseline [5, 9] [%] | LS Mean percent change in brain volume from baseline [5, 11] [%] | brain volume loss (BVL) up to EOS [5, 12] [%] | Premature discontinuation: Death (number) [6, 13] [n] | Premature discontinuation: Physician decision, Adverse event (number) [6, 13] [n] | Premature discontinuation: Physician decision, Adverse event (percent) [6, 13] | Premature discontinuation: Physician decision, Lack of efficacy/treatment failure (number) [6, 13] [n] | Premature discontinuation: Physician decision, Lack of efficacy/treatment failure (percent) [6, 13] | Premature discontinuation: Pre-specified study treatment discontinuation criteria (number) [6, 13] [n] | Premature discontinuation: Pre-specified study treatment discontinuation criteria (percent) [6, 13] | Premature discontinuation: Subject decision, Efficacy related (number) [6, 13] [n] | Premature discontinuation: Subject decision, Efficacy related (percent) [6, 13] | Premature discontinuation: Subject decision, Tolerability related (number) [6, 13] [n] | further results
1 | CCC/N=C1\S/C(=C\c2ccc(OC[C@H](O)CO)c(Cl)c2)C(=O)N1c1ccccc1C [Ponesimod, (R)-5-[3-chloro-4-(2,3-dihydroxy-propoxy)-benz[Z]ylidene]-2-([Z]-propylimino)-3-o-tolyl-thiazolidin-4-one] | 0.7 | 17.3 | 0 n (%) | −0.45 | −0.43 | −8.7 | 3 subjects | −0.91 | −0.92 | −0.91 | 0 | 29 | (5.1) % | 4 | (0.7) % | 12 | (2.1) % | 7 | (1.2) % | 8 | LS Mean difference in percent change in brain volume (Ponesimod 20 mg − Teriflunomide 14 mg) [3, 8]: 0.08%; LS Mean difference in percent change in brain volume (Ponesimod 20 mg − Teriflunomide 14 mg) [3, 10]: 0.13%; 2nd or higher degree AV block ([4]; Day 1, first dose): No 2nd or higher degree AV block was observed; subjects meeting discharge criteria at 4 hours post-dose ([4]; Day 1, first dose): ca. 99%; time of ECG HR nadir (maximum mean heart rate reduction) post-dose ([4]; Day 1, first dose): 2 h; LS Mean difference in percent change in brain volume (Ponesimod 20 mg − Teriflunomide 14 mg) [5, 8]: 0.34%; LS Mean difference in percent change in brain volume (Ponesimod 20 mg − Teriflunomide 14 mg) [5, 10]: 0.34%; reduction of brain volume loss up to EOS compared to teriflunomide 14 mg ([5]; ponesimod 20 mg): about 27%; efficacy in slowing brain volume loss over teriflunomide (conclusion) ([5]; ponesimod 20 mg vs teriflunomide 14 mg): superior efficacy; difference in BVL up to EOS, ponesimod 20 mg vs teriflunomide 14 mg ([5]; up to end of study, p<0.0001): 0.34%; Premature discontinuation: Subject decision, Tolerability related (percent) [6, 13]: (1.4) %; subjects discontinued due to AEs or tolerability related reasons [6]: 6.5%; subjects discontinued due to efficacy related reasons [6]: 1.9%
2 | C/C(O)=C(\C#N)C(=O)Nc1ccc(C(F)(F)F)cc1 [Teriflunomide] | 2.1 | 8.3 | 2 (0.4) n (%) | −0.53 | −0.55 | −1.7 | none | −1.25 | −1.26 | −1.25 | 2 | 9 | (1.6) % | 10 | (1.8) % | 16 | (2.8) % | 14 | (2.5) % | 5 | Premature discontinuation: Death (percent) [6, 13]: (0.4) %; Premature discontinuation: Subject decision, Tolerability related (percent) [6, 13]: (0.9) %; subjects discontinued due to AEs or tolerability related reasons [6]: 2.5%; subjects discontinued due to efficacy related reasons [6]: 4.3%
3 | CCCCCCCCc1ccc(CCC(N)(CO)CO)cc1 [fingolimod] |  |  |  |  |  |  |  |  |  |  |  |  |  |  |  |  |  |  |  |  | time of ECG HR nadir post-dose [7]: ~6 h
4 | CCc1cc(/C(C)=N/OCc2ccc(C3CCCCC3)c(C(F)(F)F)c2)ccc1CN1CC(C(=O)O)C1 [siponimod] |  |  |  |  |  |  |  |  |  |  |  |  |  |  |  |  |  |  |  |  | time of ECG HR nadir post-dose [7]: 3 to 4 h
